Experiments:
Format in all cases: functional
Details in all cases: read-out: IZ
Lachnellula = assay: Inhibition of DHN-melanin biosynthesis in Lachnellula sp. A32-89 assessed as pigment inhibition zone at 50 ug/disk by agar diffusion assay
Rhizomucor miehei = assay: Antimicrobial activity against Mucor miehei at 50 ug/disk
Bacillus subtilis = assay: Antimicrobial activity against Bacillus subtilis at 50 ug/disk

`CC1=CC2=C(CO1)C(=O)c1c(O)cc(O)cc1C2=O` gave a zone of inhibition at 50 µg/disc (Lachnellula) of 14 mm.
`COc1cc(O)c2c(c1)C(=O)C1=C(COC(C)=C1)C2=O` was tested, and the zone of inhibition at 50 µg/disc (Lachnellula) was 14 mm.
For `C/C=C/C1=CC2=CC(=O)[C@@]3(C)OC(=O)C(C(C)=O)=C3C2=CO1` [TRICHOFLECTIN], the zone of inhibition at 50 µg/disc (Lachnellula) was 19 mm, the zone of inhibition at 50 µg/disc (Rhizomucor miehei) was 23 mm and the zone of inhibition at 50 µg/disc (Bacillus subtilis) was 23 mm.

— ChEMBL document CHEMBL1150870, “Trichoflectin, a bioactive azaphilone from the ascomycete Trichopezizella nidulus” (1998)
